In general, IC50 refers to the concentration needed to halve the response being measured.

The target in one assay is T1, Human Factor D (Homo sapiens, UniProt P00746).
T1 construct: purified from human serum; purchased Complement Technology, Inc; host or cells: human serum (natural protein, not recombinant)
T1 sequence (P00746 26-253): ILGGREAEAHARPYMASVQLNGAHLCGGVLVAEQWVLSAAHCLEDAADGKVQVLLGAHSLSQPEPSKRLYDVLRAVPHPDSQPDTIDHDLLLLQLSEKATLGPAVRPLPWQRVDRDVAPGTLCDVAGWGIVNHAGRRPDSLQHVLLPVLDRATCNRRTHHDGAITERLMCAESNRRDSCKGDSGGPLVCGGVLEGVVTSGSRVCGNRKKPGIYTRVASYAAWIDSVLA
Put plainly: Human Factor D Assay. The assay is classed as biochemical. The following applies: Human Factor D 80 nM, substrate Z-L-Lys-SBzl, assay of Example 3; read-out: IC50 (Stars). The procedure, abridged:
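Serum-purified human factor D (80 nM final) preincubated 5 min at room temperature with test compound in 50 mM Tris, 1M NaCl, pH 7.5. Z-L-Lys-SBzl substrate and DTNB then added, each at 100 μM final. IC50 from nonlinear regression of reaction rate against compound concentration.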
For the molecule `CC(=O)c1nn(CC(=O)N2[C@H](C(=O)Nc3nc(Br)ccc3C)C[C@@]3(C)C[C@@H]23)c2c(C)cc(-c3cnc(CO)nc3)cc12` [Compound 27, (1R,3S,5R)-2-(2-(3-Acetyl-5-(2-(hydroxymethyl)pyrimidin-5-yl)-7-methyl-1H-indazol-1-yl)acetyl)-N-(6-bromo-3-methylpyridin-2-yl)-5-methyl-2-azabicyclo[3.1.0]hexane-3-carboxamide], the IC50 is less than 1000 nM.
As to `CC(=O)c1nn(CC(=O)N2[C@H](C(=O)Nc3nc(C(F)(F)F)ccc3C)C[C@@]3(C)C[C@@H]23)c2ccc(-c3cncc(S(N)(=O)=O)c3)cc12` [Compound 22, (1R,3S,5R)-2-(2-(3-Acetyl-5-(5-sulfamoylpyridin-3-yl)-1H-indazol-1-yl)acetyl)-5-methyl-N-(3-methyl-6-(trifluoromethyl)pyridin-2-yl)-2-azabicyclo[3.1.0]hexane-3-carboxamide], the IC50 was less than 1000 nM.
Still for that read-out and setting: next, `CC(=O)c1nn(CC(=O)N2[C@H](C(=O)Nc3nc(Br)ccc3C)C[C@@]3(C)C[C@@H]23)c2c(C)cc(-c3cnc(C)nc3O)cc12` [Compound 28, (1R,3S,5R)-2-(2-(3-acetyl-5-(4-hydroxy-2-methylpyrimidin-5-yl)-7-methyl-1H-indazol-1-yl)acetyl)-N-(6-bromo-3-methylpyridin-2-yl)-5-methyl-2-azabicyclo[3.1.0]hexane-3-carboxamide]: less than 1000 nM; `CCCCC[C@@H](C)NC(=O)[C@@H]1C[C@@]2(C)C[C@H]2N1C(=O)Cn1nc(C(C)=O)c2cc(-c3cnc(C)nc3)ccc21` [Compound 17, (1R,3S,5R)-2-(2-(3-Acetyl-5-(2-methylpyrimidin-5-yl)-1H-indazol-1-yl)acetyl)-N—((R)-heptan-2-yl)-5-methyl-2-azabicyclo[3.1.0]hexane-3-carboxamide]: less than 1000 nM.
Regarding `CC(=O)c1nn(CC(=O)N2[C@H](C(=O)Nc3cccc(C(F)(F)F)c3F)C[C@@]3(C)C[C@@H]23)c2cnc(-c3cnc(C)nc3)cc12` [Compound 23, (1R,3S,5R)-2-(2-(3-Acetyl-5-(2-methylpyrimidin-5-yl)-1H-pyrazolo[3,4-C]pyridine-1-yl)acetly)-N-(2-fluoro-3-(trifluoromethyl)phenyl)-5-methyl-2-azabicyclo[3.1.0]hexane-3-carboxamide], the IC50 is less than 1000 nM.

Staying with this assay, now noted: Human Factor D 80 nM, substrate Z-L-Lys-SBzl; Table 2; read-out: IC50 (Stars).
For the molecule `CC(=O)c1nn(CC(=O)N2[C@H](C(=O)N[C@@H](C(C)(C)C)C(F)(F)F)C[C@@]3(C)C[C@@H]23)c2c(C)cc(-c3cnc(C)nc3)cc12` [Compound 154, (1R,3S,5R)-2-{2-[3-acetyl-7-methyl-5-(2-methylpyrimidin-5-yl)indazol-1-yl]acetyl}-5-methyl-N-[(2S)-1,1,1-trifluoro-3,3-dimethylbutan-2-yl]-2-azabicyclo[3.1.0]hexane-3-carboxamide], the IC50 fell in the range of 1000 to 10000 nM.
For `CC(=O)c1nn(CC(=O)N2[C@H](C(=O)Nc3nc(Br)c(F)cc3C)C[C@@]3(C)C[C@@H]23)c2c(C)cc(-c3cnc(C(C)(C)O)nc3)cc12` [Compound 68, (1R,3S,5R)-2-(2-(3-acetyl-5-(2-(2-hydroxypropan-2-yl)pyrimidin-5-yl)-7-methyl-1H-indazol-1-yl)acetyl)-N-(6-bromo-5-fluoro-3-methylpyridin-2-yl)-5-methyl-2-azabicyclo[3.1.0]hexane-3-carboxamide], the IC50 is less than 1000 nM.
On the same count and under the same terms, under `CC(=O)c1nn(CC(=O)N2[C@H](C(=O)Nc3nc(Br)c(F)cc3C)C[C@@]3(C)C[C@@H]23)c2c(C)cc(-c3cnc(C(=O)O)nc3)cc12` [Compound 45, 5-(3-acetyl-1-(2-((1R,3S,5R)-3-((6-bromo-5-fluoro-3-methylpyridin-2-yl)carbamoyl)-5-methyl-2-azabicyclo[3.1.0]hexan-2-yl)-2-oxoethyl)-7-methyl-1H-indazol-5-yl)pyrimidine-2-carboxylic acid] stands less than 1000 nM.
With `CC(=O)c1cn(CC(=O)N2[C@H](C(=O)Nc3nc(C(F)(F)F)ccc3C)C[C@@]3(C)C[C@@H]23)c2c(C)nc(-c3cnc(C)nc3)cc12` [Compound 200, (1R,3S,5R)-2-{2-[3-acetyl-7-methyl-5-(2-methylpyrimidin-5-yl)pyrrolo[2,3-c]pyridin-1-yl]acetyl}-5-methyl-N-[3-methyl-6-(trifluoromethyl)pyridin-2-yl]-2-azabicyclo[3.1.0]hexane-3-carboxamide], the IC50 was less than 1000 nM.
Same read-out and setting: next, `CC(=O)c1cn(CC(=O)N2[C@H](C(=O)Nc3nc(C(F)(F)F)ccc3C)C[C@@]3(C)C[C@@H]23)c2c(C)cc(-c3cnc4cc(F)nn4c3)cc12` [Compound 225, (1R,3S,5R)-2-(2-(3-acetyl-5-(2-fluoropyrazolo[1,5-a]pyrimidin-6-yl)-7-methyl-1H-indol-1-yl)acetyl)-5-methyl-N-(3-methyl-6-(trifluoromethyl)pyridin-2-yl)-2-azabicyclo[3.1.0]hexane-3-carboxamide]: less than 1000 nM.
For the molecule `CC(=O)c1nn(CC(=O)N2[C@H](C(=O)N[C@H](C)C3CCCCC3)C[C@@]3(C)C[C@@H]23)c2c(C)cc(-c3cnc(C)nc3)cc12` [Compound 70, (1R,3S,5R)-2-(2-(3-acetyl-7-methyl-5-(2-methylpyrimidin-5-yl)-1H-indazol-1-yl)acetyl)-N—((R)-1-cyclohexylethyl)-5-methyl-2-azabicyclo[3.1.0]hexane-3-carboxamide], the 50% inhibitory concentration (IC50) is less than 1000 nM.
Regarding `CC(=O)c1nn(CC(=O)N2[C@H](C(=O)Nc3nc(Br)ccc3C)C[C@@]3(C)C[C@@H]23)c2c(C)cc(-c3ccc(CO)nc3)cc12` [Compound 82, (1R,3S,5R)-2-(2-(3-acetyl-5-(6-(hydroxymethyl)pyridin-3-yl)-7-methyl-1H-indazol-1-yl)acetyl)-N-(6-bromo-3-methylpyridin-2-yl)-5-methyl-2-azabicyclo[3.1.0]hexane-3-carboxamide], the IC50 is less than 1000 nM.
Still for that read-out and setting: next, `CC(=O)c1cn(CC(=O)N2[C@H](C(=O)Nc3nc(C(F)(F)F)ccc3C)C[C@@]3(C)C[C@@H]23)c2c(C)cc(-c3cnc4cc(C5CC5)nn4c3)cc12` [Compound 196, (1R,3S,5R)-2-(2-(3-acetyl-5-(2-cyclopropylpyrazolo[1,5-a]pyrimidin-6-yl)-7-methyl-1H-indol-1-yl)acetyl)-5-methyl-N-(3-methyl-6-(trifluoromethyl)pyridin-2-yl)-2-azabicyclo[3.1.0]hexane-3-carboxamide]: less than 1000 nM.
For the molecule `CC(=O)c1cn(CC(=O)N2[C@H](C(=O)Nc3nc(Br)ccc3C)C[C@@]3(C)C[C@@H]23)c2c(C)cc(-c3cnc(CF)nc3)cc12` [Compound 221, (1R,3S,5R)-2-(2-(3-acetyl-5-(2-(fluoromethyl)pyrimidin-5-yl)-7-methyl-1H-indol-1-yl)acetyl)-N-(6-bromo-3-methylpyridin-2-yl)-5-methyl-2-azabicyclo[3.1.0]hexane-3-carboxamide], the IC50 was less than 1000 nM.
For the molecule `Cc1ncc(-c2cc3c(C(N)=O)nn(CC(=O)N4C(C(=O)Nc5nc(Br)ccc5Cl)CC5(C)CC45)c3c(C)n2)cn1` (stereo not drawn) [Compound 91, 1-{2-[3-(6-Bromo-3-chloro-pyridin-2-ylcarbamoyl)-5-methyl-2-aza-bicyclo[3.1.0]hex-2-yl]-2-oxo-ethyl}-7-methyl-5-(2-methyl-pyrimidin-5-yl)-1H-pyrazolo[3,4-c]pyridine-3-carboxylic acid amide], the IC50 is less than 1000 nM.
As to `CC(=O)c1nn(CC(=O)N2[C@H](C(=O)NCCC3(C)OCCO3)C[C@@]3(C)C[C@@H]23)c2c(C)cc(-c3cnc(C)nc3)cc12` [Compound 145, (1R,3S,5R)-2-{2-[3-acetyl-7-methyl-5-(2-methylpyrimidin-5-yl)indazol-1-yl]acetyl}-5-methyl-N-[2-(2-methyl-1,3-dioxolan-2-yl)ethyl]-2-azabicyclo[3.1.0]hexane-3-carboxamide], the IC50 is less than 1000 nM.
Same read-out and setting: under `CC(=O)c1ncc(-c2cc(C)c3c(c2)c(C(C)=O)nn3CC(=O)N2[C@H](C(=O)Nc3nc(Br)ccc3C)C[C@@]3(C)C[C@@H]23)cn1` [Compound 58] stands less than 1000 nM; under `CC(=O)c1nn(CC(=O)N2[C@H](C(=O)Nc3cc(F)cc(Br)n3)C[C@@]3(C)C[C@@H]23)c2c(C)cc(-c3cnc(CO)nc3)cc12` [Compound 123, (1R,3S,5R)-2-(2-(3-acetyl-5-(2-(hydroxymethyl)pyrimidin-5-yl)-7-methyl-1H-indazol-1-yl)acetyl)-N-(6-bromo-4-fluoropyridin-2-yl)-5-methyl-2-azabicyclo[3.1.0]hexane-3-carboxamide], less than 1000 nM.
As to `COCCOC[C@@]12C[C@@H](C(=O)Nc3nc(Br)ccc3C)N(C(=O)Cn3nc(C(C)=O)c4cc(-c5cnc(C)nc5)cc(C)c43)[C@@H]1C2` [Compound 107, (1R,3S,5S)-2-(2-(3-acetyl-7-methyl-5-(2-methylpyrimidin-5-yl)-1H-indazol-1-yl)acetyl)-N-(6-bromo-3-methylpyridin-2-yl)-5-((2-methoxyethoxy)methyl)-2-azabicyclo[3.1.0]hexane-3-carboxamide], the IC50 was less than 1000 nM.
`CC(=O)c1nn(CC(=O)N2[C@H](C(=O)Nc3cc(F)cc(Br)n3)C[C@@]3(C)C[C@@H]23)c2c(C)cc(-c3cnc(C(C)O)nc3)cc12` (stereo partly drawn) [Compound 124, (1R,3S,5R)-2-(2-(3-acetyl-5-(2-(1-hydroxyethyl)pyrimidin-5-yl)-7-methyl-1H-indazol-1-yl)acetyl)-N-(6-bromo-4-fluoropyridin-2-yl)-5-methyl-2-azabicyclo[3.1.0]hexane-3-carboxamide]: the IC50 was less than 1000 nM.
Turning to `CC(=O)c1nn(CC(=O)N2[C@H](C(=O)Nc3nc(Br)ccc3C)C[C@@]3(C)C[C@@H]23)c2ccc(-c3cncc(C4(C(=O)O)CC4)c3)cc12` [Compound 98, 1-(5-(3-acetyl-1-(2-((1R,3S,5R)-3-((6-bromo-3-methylpyridin-2-yl)carbamoyl)-5-methyl-2-azabicyclo[3.1.0]hexan-2-yl)-2-oxoethyl)-1H-indazol-5-yl)pyridin-3-yl)cyclopropane-1-carboxylic acid], the IC50 was less than 1000 nM.

The values are drawn from US20230022157A1 (Achillion Pharmaceuticals, Inc., priority 2018, published 2023).
